This is an account of results in EP0846683B1, “4-Hydroxy-piperidine derivatives” (F. HOFFMANN-LA ROCHE AG, priority 1996, dated 1998).

One assay has as its target T1, NMDA receptor (Rattus norvegicus, UniProt P35439+Q00960).
T1 construct: Membranes were prepared by homogenization of the whole brain minus cerebellum and medulla oblongata; from tissue; host or cells: rat whole brain minus cerebellum and medulla oblongata, membranes
As to the kind of experiment: 3H-Ro 25-6981 binding (displacement, rat brain membranes). Conditions: 5 nM 3H-Ro 25-6981, 2 hours at 4°C. As to the method:
3H-Ro 25-6981 binding (Ro 25-6981 is [R-(R*,S*)]-a-(4-Hydroxy-phenyl)-b-methyl-4-(phenyl-methyl)-1-piperidine propanol)
(§1) Male Füllinsdorf albino rats weighing between 150-200 g were used. Membranes were prepared by homogenization of the whole brain minus cerebellum and medulla oblongata with a Polytron (10.000 rpm, 30 seconds), in 25 volumes of a cold Tris-HCl 50 mM, EDTA 10 mM, pH 7.1 buffer. The homogenate was centrifuged at 48.000 g for 10 minutes at 4°C. The pellet was resuspended using the Polytron in the same volume of buffer and the homogenate was incubated at 37°C for 10 minutes. After centrifugation the pellet was homogenized in the same buffer and frozen at -80°C for at least 16 hours but not more than 10 days. For the binding assay the homogenate was thawed at 37°C, centrifuged and the pellet was washed three times as above in a Tris-HCl 5 mM, pH 7.4 cold buffer. The final pellet was resuspended in the same buffer and used at a final concentration of 200 µg of protein/ml.
3H-Ro 25-6981 binding experiments were performed using a Tris-HCl 50 mM, pH 7.4 buffer. For displacement experiments 5 nM of 3H-Ro 25-6981 were used and non specific binding was measured using 10 µM of tetrahydroisoquinoline and usually it accounts for 10% of the total. The incubation time was 2 hours at 4°C and the assay was stopped by filtration on Whatmann GF/B glass fiber filters (Unifilter-96, Packard, Zürich, Switzerland). The filters were washed 5 times with cold buffer. The radioactivity on the filter was counted on a Packard Top-count microplate scintillation counter after addition of […] of microscint 40 (Canberra Packard S.A., Zürich, Switzerland).
The effects of compounds were measured using a minimum of 8 concentrations and repeated at least once. The pooled normalized values were analyzed using a non-linear regression calculation program which provide IC50 with their relative upper and lower 95% confidence limits (RS1, BBN, USA).

Another assay deals with 3H-Prazosine binding. As to the kind of experiment: 3H-Prazosine binding (displacement, rat brain membranes). Conditions: 0.2 nM 3H-Prazosine, 30 minutes at room temperature. The procedure: as §1, with “a Plytron” for “a Polytron”, “EDTA 10mM,” for “EDTA 10 mM,”, “Tris-HCl 5mM,” for “Tris-HCl 5 mM,”
3H-Prazosine binding experiments were performed using a Tris-HCl 50 mM, pH 7.4 buffer. For displacement experiments 0.2 nM of 3H-Prazosine were used and non specific binding was measured using 100 µM of Chlorpromazine. The incubation time was 30 minutes at room temperature and the assay was stopped by filtration on Whatman GF/B glass fiber filters (Unifilter-96, Canberra Packard S.A., Zürich, Switzerland). The filters were washed 5 times with cold buffer. The radioactivity on the filter was counted on a Packard Top-count microplate scintillation counter after addition of […] of microscint 40 (Canberra Packard S.A., Zürich, Switzerland). The effects of compounds were measured using a minimum of 8 concentrations and repeated at least once. The pooled normalized values were analyzed using a non-linear regression calculation program which provide IC50 with their relative upper and lower 95% confidence limits (RS1, BBN, USA).

The target of a further assay is T2, NR1C + NR2A (Rattus norvegicus, UniProt Q00959).
T2 construct: expressed in transfected cells; host or cells: Xenopus laevis oocytes, nuclear injection of pBC/CMV expression plasmids
Briefly: Electrophysiology on recombinant NMDA receptors (voltage clamp, Xenopus laevis oocytes), NR1C + NR2A. Type of assay: cell-based. Conditions: 10 µM compound; oocytes clamped to -80 mV; 2.7 µM Glu plus 0.9 µM Gly; mean of four to six oocytes. The text has this: (§2) Electrophysiology on recombinant NMDA receptors
(§3) cDNA clones coding for the subunits NR1C and NR2A of the NMDA receptor (see Hollmann and Heinemann, 1994, Annu. Rev. Neurosci. 17:31 for nomenclature of NMDA receptor subunits) were isolated from a rat brain λgt11 cDNA library as published elsewhere (Sigel et al., 1994, J. Biol. Chem. 269:8204). The clone for the subunit NR2B of the rat brain NMDA receptor was obtained from S. Nakanishi (Kyoto, Japan). The cDNAs encoding rat NR1C, NR2A and NR2B were subcloned into the expression vector pBC/CMV (Bertocci et al., 1991, Proc. Natl. Acad. Sci. U.S.A. 88:1416), placing transcription of the cDNA under control of the human cytomegalovirus promoter. CsCl-purified expression plasmids were mixed in a 1:3 ratio of NR1C:NR2A or NR1C:NR2B in injection buffer (88 mM NaCI, 1 mM KCl, 15 mM HEPES, at pH 7.0). Oocytes of South African frogs (Xenopus laevis) were used for expressing either a combination of the NR1C and NR2A subunits or the NR1C and NR2B subunits. 12 to 120 pg of a 1:3 (NR1C:NR2B) mixture of the respective cDNA species were injected into the nucleus of every oocyte. On the following two days the ion current through the NMDA receptor channels was measured in voltage clamp experiments for the methods of cDNA expression in oocytes and voltage-clamping (see, e.g., Bertrand et al., 1991, Methods in Neurosciences 4:174). The membrane potential was clamped to -80 mV and the receptors were activated by applying a modified Ringer's solution containing the NMDA-receptor agonists L-glutamate (Glu) and glycine (Gly). Different agonist concentrations were chosen for either subunit combination to account for the different agonist sensitivities of the two types of receptors (2.7 µM Glu plus 0.9 µM Gly for NR1C + NR2A and 1.3 µM Glu plus 0.07 µM Gly for NR1C + NR2B). The agonists were applied for 15 s intervals once every 2.5 min by rapid superfusion of the oocyte with agonist containing solution and the amplitude of the agonist-evoked current was measured immediately before the end of each application. After a series of initial control applications the antagonist to be tested was added to both, the basal Ringer's and the agonist containing solution. The antagonist concentration applied to oocytes expressing the NR2A subunit was 10 µmol/l, whereas 0.1 µmol/l were applied to the NR2B expressing oocytes. Four to six oocytes were tested for every compound and NMDA receptor subtype. Oocytes were exposed to the compounds for 5 to 30 min depending on the time needed for reaching an equilibrium block of the NMDA receptor current. For every oocyte the decrease of the current amplitude was expressed as a percentage of the control current measured before application of the compound. Figures in the table are arithmetic mean values of these percentage values.

The target of a further assay is T3, NR1C + NR2B (Rattus norvegicus, UniProt P35439+Q00960).
T3 construct: expressed in transfected cells; host or cells: Xenopus laevis oocytes, nuclear injection of pBC/CMV expression plasmids
Briefly: Electrophysiology on recombinant NMDA receptors (voltage clamp, Xenopus laevis oocytes), NR1C + NR2B. The settings on record: 0.1 µM compound; oocytes clamped to -80 mV; 1.3 µM Glu plus 0.07 µM Gly; mean of four to six oocytes. The format is cell-based.
Source text: as §2, §3

Counter-ions that a name gives are not always drawn.

T3 sequence (Q00960 27-1482, other chains not shown): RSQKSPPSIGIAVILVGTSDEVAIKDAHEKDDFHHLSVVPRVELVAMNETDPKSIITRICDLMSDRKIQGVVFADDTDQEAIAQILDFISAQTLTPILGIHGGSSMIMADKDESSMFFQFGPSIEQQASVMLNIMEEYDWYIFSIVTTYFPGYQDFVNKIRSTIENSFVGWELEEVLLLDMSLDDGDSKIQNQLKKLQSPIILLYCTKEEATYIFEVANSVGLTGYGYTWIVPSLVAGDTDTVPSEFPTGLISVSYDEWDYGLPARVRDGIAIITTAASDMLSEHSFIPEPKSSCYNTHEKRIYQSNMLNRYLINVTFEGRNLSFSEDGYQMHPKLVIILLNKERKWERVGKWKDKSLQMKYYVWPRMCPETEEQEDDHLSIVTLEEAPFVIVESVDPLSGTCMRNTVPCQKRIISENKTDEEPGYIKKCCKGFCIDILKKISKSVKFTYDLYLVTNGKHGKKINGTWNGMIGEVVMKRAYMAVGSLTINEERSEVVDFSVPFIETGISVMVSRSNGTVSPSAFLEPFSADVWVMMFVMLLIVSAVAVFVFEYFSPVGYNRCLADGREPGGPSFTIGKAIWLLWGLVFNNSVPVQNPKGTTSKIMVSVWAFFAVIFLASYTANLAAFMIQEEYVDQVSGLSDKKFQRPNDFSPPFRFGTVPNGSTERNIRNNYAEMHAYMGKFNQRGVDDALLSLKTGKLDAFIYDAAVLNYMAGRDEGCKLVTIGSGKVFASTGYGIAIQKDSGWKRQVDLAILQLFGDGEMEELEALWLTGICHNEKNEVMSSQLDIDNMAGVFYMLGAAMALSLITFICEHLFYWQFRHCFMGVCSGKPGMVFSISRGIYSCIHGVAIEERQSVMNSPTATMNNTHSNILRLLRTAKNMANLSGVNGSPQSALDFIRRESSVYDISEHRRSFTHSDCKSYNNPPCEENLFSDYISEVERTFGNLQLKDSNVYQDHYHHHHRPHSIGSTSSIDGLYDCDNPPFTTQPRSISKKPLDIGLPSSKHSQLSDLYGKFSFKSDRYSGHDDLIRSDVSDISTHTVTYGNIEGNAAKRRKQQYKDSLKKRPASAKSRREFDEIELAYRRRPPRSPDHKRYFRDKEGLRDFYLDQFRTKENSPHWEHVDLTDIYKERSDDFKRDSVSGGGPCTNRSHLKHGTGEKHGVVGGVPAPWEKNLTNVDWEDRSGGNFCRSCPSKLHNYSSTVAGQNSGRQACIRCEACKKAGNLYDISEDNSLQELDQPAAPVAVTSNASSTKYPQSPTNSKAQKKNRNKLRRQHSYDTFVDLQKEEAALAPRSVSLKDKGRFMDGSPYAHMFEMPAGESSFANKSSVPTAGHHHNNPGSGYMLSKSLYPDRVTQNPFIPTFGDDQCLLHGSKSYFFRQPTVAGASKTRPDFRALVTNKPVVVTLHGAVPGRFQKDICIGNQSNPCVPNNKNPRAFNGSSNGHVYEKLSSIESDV
T1 sequence (Q00960 27-1482, other chains not shown): as above
T2 sequence (Q00959 23-1464, other chains not shown): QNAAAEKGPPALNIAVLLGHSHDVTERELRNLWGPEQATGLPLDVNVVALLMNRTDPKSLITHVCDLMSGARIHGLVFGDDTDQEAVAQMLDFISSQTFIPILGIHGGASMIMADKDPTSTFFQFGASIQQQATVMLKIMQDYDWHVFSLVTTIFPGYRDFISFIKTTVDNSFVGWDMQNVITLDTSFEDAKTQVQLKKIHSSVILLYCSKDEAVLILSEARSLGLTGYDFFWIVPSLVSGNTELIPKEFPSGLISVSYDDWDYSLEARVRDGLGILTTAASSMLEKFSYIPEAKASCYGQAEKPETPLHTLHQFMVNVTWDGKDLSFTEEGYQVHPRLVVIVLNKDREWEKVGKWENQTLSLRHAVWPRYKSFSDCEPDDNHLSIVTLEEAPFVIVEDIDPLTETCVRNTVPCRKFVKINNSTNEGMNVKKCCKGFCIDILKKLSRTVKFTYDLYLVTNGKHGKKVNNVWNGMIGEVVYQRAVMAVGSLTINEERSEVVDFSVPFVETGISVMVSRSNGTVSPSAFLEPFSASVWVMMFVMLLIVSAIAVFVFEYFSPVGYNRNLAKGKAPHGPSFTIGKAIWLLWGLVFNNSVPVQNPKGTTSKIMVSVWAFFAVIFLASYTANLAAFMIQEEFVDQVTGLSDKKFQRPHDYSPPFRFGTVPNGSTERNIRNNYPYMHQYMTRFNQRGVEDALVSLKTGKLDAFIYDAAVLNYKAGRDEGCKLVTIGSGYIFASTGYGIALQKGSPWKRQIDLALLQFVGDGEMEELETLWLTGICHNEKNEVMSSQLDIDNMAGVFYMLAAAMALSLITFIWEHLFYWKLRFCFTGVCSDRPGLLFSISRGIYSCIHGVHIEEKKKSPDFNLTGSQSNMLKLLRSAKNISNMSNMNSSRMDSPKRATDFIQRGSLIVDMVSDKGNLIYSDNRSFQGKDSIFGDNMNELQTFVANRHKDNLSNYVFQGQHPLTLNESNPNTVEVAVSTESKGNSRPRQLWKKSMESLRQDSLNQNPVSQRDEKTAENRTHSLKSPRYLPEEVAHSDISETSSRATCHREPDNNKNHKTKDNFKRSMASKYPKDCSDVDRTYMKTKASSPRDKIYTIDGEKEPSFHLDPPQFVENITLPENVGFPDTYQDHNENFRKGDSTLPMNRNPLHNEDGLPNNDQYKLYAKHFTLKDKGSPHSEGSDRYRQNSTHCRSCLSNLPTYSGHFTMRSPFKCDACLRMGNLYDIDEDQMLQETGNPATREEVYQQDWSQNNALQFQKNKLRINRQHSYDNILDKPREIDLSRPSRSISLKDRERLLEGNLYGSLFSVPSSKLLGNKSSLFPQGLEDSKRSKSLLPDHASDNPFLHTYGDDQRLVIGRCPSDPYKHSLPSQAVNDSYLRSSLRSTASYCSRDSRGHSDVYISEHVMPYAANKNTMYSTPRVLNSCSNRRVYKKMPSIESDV

What is called IC50 is the concentration needed to halve the response being measured. Read a low IC50 as greater potency in that assay. Regarding `Cc1ccc(CC2(O)CCN(CC3Cc4ccc(O)cc4C3)CC2)cc1` (racemic) [Example 19, (RS)-1-(5-Hydroxy-indan-2-ylmethyl)-4-(4-methyl-benzyl)-piperidin-4-ol], the values for the concentration for half-maximal inhibition (IC50) at NMDA receptor and at 3H-Prazosine binding were 55 nM and 3200 nM, respectively.
Take `Cc1ccc(CC2(O)CCN(CC3Cc4cc(O)ccc4C3O)CC2)cc1` (stereo not drawn) [Example 16, (1RS,2RS) and (1RS,2SR)-2-[4-Hydroxy-4-(4-methyl-benzyl)-piperidine-1-ylmethyl]-indan-1,5-diol fumarate salt]: the values for the IC50 on NMDA receptor and at 3H-Prazosine binding were 23 nM and 5000 nM, respectively. Besides, the “Electrophysiology NR1C + NR2A % block by 10 µM” value on NR1C + NR2A was found to be 6%. In addition, the “Electrophysiology NR1C + NR2B % block by 0.1 µM” value at NR1C + NR2B is 86%.
For `Cc1ccc(CC2(O)CCN(C[C@@H]3Cc4cc(O)ccc4O3)CC2)cc1.Cl` [Example 13, (S)-1-(5-Hydroxy-2,3-dihydro-benzofuran-2-ylmethyl)-4-(4-methyl-benzyl)-piperidin-4-ol hydrochloride] the same measures were 14 nM, 6000 nM, 8% and 93%.
As to `CS(=O)(=O)Nc1ccc2c(c1)CC(CN1CCC(O)(Cc3ccc(Cl)cc3)CC1)O2` (racemic) [Example 22, (RS)-N-{2-[4-(4-chloro-benzyl)-4-hydroxy-pipiridin-1-ylmethyl]-2,3-dihydroxybenzofuran-5-yl}methane sulfonamide hydrochloride], the IC50 on 3H-Prazosine binding is 6500 nM.
With `Cc1ccc(CC2(O)CCN(CC3Cc4cc(NS(C)(=O)=O)ccc4O3)CC2)cc1` (racemic) [Example 23, (RS)-N(2-[4-hydroxy-4-(4-methyl-benzyl)-piperidin-1-ylmethyl]-2,3-dihydrobenzofuran-5-yl]-methane sulfonamide hydrochloride], the IC50 came out at 40 nM at NMDA receptor and 2300 nM on 3H-Prazosine binding.
In the same order, the values of `Cc1ccc(CC2(O)CCN(CC3Cc4cc(O)ccc4N3)CC2)cc1` (racemic) [Example 21, (RS)-2-[4-Hydroxy-4-(4-methyl-benzyl)-piperidin-1-ylmethyl]-2,3-dihydro-1H-indol-5-ol] are 55 nM and 6600 nM.
On to `Oc1ccc2c(c1)CC[C@H](CN1CCC(O)(Cc3ccccc3)CC1)[C@H]2O` (racemic) [Example 29, (1RS,2RS)-2-(4-Benzyl-4-hydroxy-piperidin-1-yl-methyl)-6-hydroxy-1,2,3,4-tetrahydro-naphthalen-1-ol], for which the IC50 on NMDA receptor was determined as 23 nM; at 3H-Prazosine binding it was 11000 nM.
For `Oc1ccc2c(c1)CC(CN1CCC(O)(Cc3ccccc3)CC1)O2` (racemic) [Example 4, (RS)-4-Benzyl-1-(5-hydroxy-2,3-dihydro-benzofuran-2-ylmethyl)-piperidin-4-ol hydrochloride] the same measures were 50 nM and 2500 nM.
Consider `Cc1ccc(CC2(O)CCN(CC3Cc4cc(O)ccc4O3)CC2)cc1` (racemic) [Example 2, (RS)-1-(5-Hydroxy-2,3-dihydro-benzofuran-2-ylmethyl)-4-(4-methyl-benzyl)-piperidin-4-ol hydrochloride], for which the IC50 at NMDA receptor turned out to be 20 nM; at 3H-Prazosine binding, 3200 nM.
For the compound `CCc1ccc(CC2(O)CCN(CC3Cc4cc(O)ccc4O3)CC2)cc1.Cl` (racemic) [Example 7, (RS)-4-(4-Ethyl-benzyl)-1-(5-hydroxy-2,3-dihydro-benzofuran-2-ylmethyl)-piperidin-4-ol hydrochloride], the IC50 on NMDA receptor amounted to 12 nM; on 3H-Prazosine binding, 6000 nM. Further, at NR1C + NR2A, the “Electrophysiology NR1C + NR2A % block by 10 µM” value is 12%. Besides, the “Electrophysiology NR1C + NR2B % block by 0.1 µM” value on NR1C + NR2B is given as 89%.
Take `Cc1ccc(CC2(O)CCN(CC3CCc4cc(O)ccc4C3)CC2)cc1` (racemic) [Example 30, (RS)-1-(6-Hydroxy-1,2,3,4-tetrahydro-naphthalen-2-ylmethyl)-4-(4-methyl-benzyl)-piperidin-4-ol hydrochloride]: the IC50 on NMDA receptor is 20 nM; on 3H-Prazosine binding it was 800 nM.
Regarding `Cl.Oc1ccc2c(c1)C[C@@H](CN1CCC(O)(Cc3ccc(Cl)cc3)CC1)O2` [Example 14, (S)-1-(5-Hydroxy-2,3-dihydro-benzofuran-2-ylmethyl)-4-(4-chloro-benzyl)-piperidin-4-ol hydrochloride], the IC50 was found to be 5 nM at NMDA receptor and 6000 nM on 3H-Prazosine binding. At NR1C + NR2A, the “Electrophysiology NR1C + NR2A % block by 10 µM” value turned out to be 9%. The “Electrophysiology NR1C + NR2B % block by 0.1 µM” value on NR1C + NR2B came out at 90%.
`Cc1ccc(CC2(O)CCN(C[C@H]3CCc4cc(O)ccc4[C@@H]3O)CC2)cc1.O=C(O)/C=C/C(=O)O` (racemic) [Example 27, (1RS, 2RS)-1-(1,6-Dihydroxy-1,2,3,4-tetrahydro-naphthalen-2-ylmethyl)-4-(4-methyl-benzyl)-piperidin-4-ol fumarate salt] yielded an IC50 on 3H-Prazosine binding of 6000 nM. For the same compound, the “Electrophysiology NR1C + NR2A % block by 10 µM” value on NR1C + NR2A is 15%. Also, the “Electrophysiology NR1C + NR2B % block by 0.1 µM” value at NR1C + NR2B was determined as 91%.
For the compound `Oc1ccc2c(c1)CC(CN1CCC(O)(Cc3ccc(F)cc3)CC1)O2` (racemic) [Example 5, (RS)-4-(4-fluoro-benzyl)-1-(5-hydroxy-2,3-dihydro-benzofuran-2-ylmethyl)-piperidin-4-ol hydrochloride], the figures for the IC50 at NMDA receptor and at 3H-Prazosine binding were 40 nM and 4000 nM, respectively.
